PubChem BioAssay AID1963445 (Molecular Pharmacology Branch, DTP, NCI, 2024)
Values joined by “and” are separate entries in the source; they are usually repeats but may differ in a detail not shown here. Identical values can stand only once.

System: MCF7 complex spheroid growth, % test/control
Assay: Anticancer human tumor MCF7 cell line growth inhibition [Asc];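 note: spheroids exposed to compounds for 7 days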;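 for viability, T/C: 100% = DMSO vehicle control wells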
Conditions: for viability, T/C: stronger effect = lower value; active = viability on the fitted dose curve at most 10% of control; inactive = the rest
Summary of the method: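 Stromal components (HUVEC and hMSC) are co-assembled with the cancer cells into multicellular spheroids. Drugs are then added singly or paired, at concentrations falling by half-log increments from a clinically achievable maximum, capped at 10 microM without known Cmax.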

[1] = curve of first compound, second compound 0.00316 µM
[2] = curve of first compound, second compound 0.01 µM
[3] = curve of first compound, second compound 0.0316 µM
[4] = curve of first compound, second compound 0.1 µM
[5] = curve of first compound, second compound 0.316 µM
[6] = curve of first compound, second compound 1 µM
[7] = second compound 0.00316 µM, first compound 0.0316 µM
[8] = second compound 0.00316 µM, first compound 0.1 µM
[9] = second compound 0.01 µM, first compound 0.0316 µM
[10] = second compound 0.01 µM, first compound 0.1 µM
[11] = second compound 0.0316 µM, first compound 0.0316 µM
[12] = second compound 0.0316 µM, first compound 0.1 µM
[13] = second compound 0.1 µM, first compound 0.0316 µM
[14] = second compound 0.1 µM, first compound 0.1 µM
[15] = second compound 0.316 µM, first compound 0.0316 µM
[16] = second compound 0.316 µM, first compound 0.1 µM
[17] = second compound 1 µM, first compound 0.0316 µM
[18] = second compound 1 µM, first compound 0.1 µM
[19] = second compound 0.0316 µM, first compound 0.316 µM
[20] = second compound 0.0316 µM, first compound 1 µM
[21] = second compound 0.0316 µM, first compound 3.16 µM
[22] = second compound 0.0316 µM, first compound 10 µM
[23] = second compound 0.1 µM, first compound 0.316 µM
[24] = second compound 0.1 µM, first compound 1 µM
[25] = second compound 0.1 µM, first compound 3.16 µM
[26] = second compound 0.1 µM, first compound 10 µM
[27] = second compound 0.316 µM, first compound 0.316 µM
[28] = second compound 0.316 µM, first compound 1 µM
[29] = second compound 0.316 µM, first compound 3.16 µM
[30] = second compound 0.316 µM, first compound 10 µM
[31] = second compound 1 µM, first compound 0.316 µM
[32] = second compound 1 µM, first compound 1 µM
[33] = second compound 1 µM, first compound 3.16 µM
[34] = second compound 1 µM, first compound 10 µM

Cn1ncnc1[C@H]1c2n[nH]c(=O)c3cc(F)cc(c23)N[C@@H]1c1ccc(F)cc1 + CNC(C)C(=O)NC1CN(S(=O)(=O)c2cccc(S(=O)(=O)N3CCC4CCC(C(=O)NC(c5ccccc5)c5ccccc5)N4C(=O)C(NC(=O)C(C)NC)C3)c2)CCC2CCC(C(=O)NC(c3ccccc3)c3ccccc3)N2C1=O
inactive: viability, T/C (second compound 0.00316 µM, first compound 0.000316 µM) 13.7% | viability, T/C (second compound 0.00316 µM, first compound 0.001 µM) 11.2% | viability, T/C (second compound 0.00316 µM, first compound 0.00316 µM) 11.4% | viability, T/C (second compound 0.00316 µM, first compound 0.01 µM) 13.2% | viability, T/C [7] 12.5% | viability, T/C [8] 10.1% | viability, T/C (second compound 0.01 µM, first compound 0.000316 µM) 12.8% | viability, T/C (second compound 0.01 µM, first compound 0.001 µM) 12.4% | viability, T/C (second compound 0.01 µM, first compound 0.00316 µM) 14.8% | viability, T/C (second compound 0.01 µM, first compound 0.01 µM) 12.8% | viability, T/C [9] 12.4% | viability, T/C [10] 12.7% | viability, T/C (second compound 0.0316 µM, first compound 0.000316 µM) 10.1% | viability, T/C (second compound 0.0316 µM, first compound 0.001 µM) 10.7% | viability, T/C (second compound 0.0316 µM, first compound 0.00316 µM) 12.2% | viability, T/C (second compound 0.0316 µM, first compound 0.01 µM) 9.67% | viability, T/C [11] 9.98% | viability, T/C [12] 12.2% | viability, T/C (second compound 0.1 µM, first compound 0.000316 µM) 11.1% | viability, T/C (second compound 0.1 µM, first compound 0.001 µM) 14.1% | viability, T/C (second compound 0.1 µM, first compound 0.00316 µM) 11.7% | viability, T/C (second compound 0.1 µM, first compound 0.01 µM) 11.5% | viability, T/C [13] 10.3% | viability, T/C [14] 11.4% | viability, T/C (second compound 0.316 µM, first compound 0.000316 µM) 10.9% | viability, T/C (second compound 0.316 µM, first compound 0.001 µM) 10.8% | viability, T/C (second compound 0.316 µM, first compound 0.00316 µM) 13% | viability, T/C (second compound 0.316 µM, first compound 0.01 µM) 11.1% | viability, T/C [15] 11.9% | viability, T/C [16] 12.8% | viability, T/C (second compound 1 µM, first compound 0.000316 µM) 14.7% | viability, T/C (second compound 1 µM, first compound 0.001 µM) 13.5% | viability, T/C (second compound 1 µM, first compound 0.00316 µM) 12.3% | viability, T/C (second compound 1 µM, first compound 0.01 µM) 12.8% | viability, T/C [17] 9.82% | viability, T/C [18] 13.9%
< 0.316 nM: IC50 [1] | IC50 [2] | IC50 [3] | IC50 [4] | IC50 [5] | IC50 [6]

C=CC(=O)N1CCN(c2nc(=O)n(-c3c(C)ccnc3C(C)C)c3nc(-c4c(O)cccc4F)c(F)cc23)C(C)C1 (stereo not given) + Cc1c(S(C)(=O)=O)c(-c2cc(F)cc(N3CCN(c4ccc(NS(=O)(=O)c5ccc(NC(CCN6CCC(C(=O)OCCCP(=O)(O)O)CC6)CSc6ccccc6)c(S(=O)(=O)C(F)(F)F)c5)cc4)CC3)c2)c(-c2ccc(Cl)cc2)n1C(C)C
> 10000 nM: IC50 [3] | IC50 [4] | IC50 [5] | IC50 [6] | IC50 (curve of first compound, second compound 3.16 µM) | IC50 (curve of first compound, second compound 10 µM)
inactive: viability, T/C [11] 101% | viability, T/C [12] 105% | viability, T/C [19] 99.7% | viability, T/C [20] 95.5% | viability, T/C [21] 112% | viability, T/C [22] 85.8% | viability, T/C [13] 92.9% | viability, T/C [14] 89.6% | viability, T/C [23] 89% | viability, T/C [24] 110% | viability, T/C [25] 92.3% | viability, T/C [26] 87.4% | viability, T/C [15] 101% | viability, T/C [16] 92.7% | viability, T/C [27] 109% | viability, T/C [28] 90.1% | viability, T/C [29] 89.5% | viability, T/C [30] 81.3% | viability, T/C [17] 87.2% | viability, T/C [18] 91.4% | viability, T/C [31] 102% | viability, T/C [32] 97.4% | viability, T/C [33] 101% | viability, T/C [34] 89.9% | viability, T/C (second compound 3.16 µM, first compound 0.0316 µM) 92.9% | viability, T/C (second compound 3.16 µM, first compound 0.1 µM) 94.9% | viability, T/C (second compound 3.16 µM, first compound 0.316 µM) 103% | viability, T/C (second compound 3.16 µM, first compound 1 µM) 94.1% | viability, T/C (second compound 3.16 µM, first compound 3.16 µM) 89.5% | viability, T/C (second compound 3.16 µM, first compound 10 µM) 86.1% | viability, T/C (second compound 10 µM, first compound 0.0316 µM) 222% | viability, T/C (second compound 10 µM, first compound 0.1 µM) 143% | viability, T/C (second compound 10 µM, first compound 0.316 µM) 171% | viability, T/C (second compound 10 µM, first compound 1 µM) 195% | viability, T/C (second compound 10 µM, first compound 3.16 µM) 233% | viability, T/C (second compound 10 µM, first compound 10 µM) 168%

C=CC(=O)N1CCN(c2nc(=O)n(-c3c(C)ccnc3C(C)C)c3nc(-c4c(O)cccc4F)c(F)cc23)C(C)C1 (stereo not given) + CNC(C)C(=O)NC1CN(S(=O)(=O)c2cccc(S(=O)(=O)N3CCC4CCC(C(=O)NC(c5ccccc5)c5ccccc5)N4C(=O)C(NC(=O)C(C)NC)C3)c2)CCC2CCC(C(=O)NC(c3ccccc3)c3ccccc3)N2C1=O
inactive: viability, T/C [7] 68.5% | viability, T/C [8] 29% | viability, T/C (second compound 0.00316 µM, first compound 0.316 µM) 30.4% | viability, T/C (second compound 0.00316 µM, first compound 1 µM) 54.8% | viability, T/C (second compound 0.00316 µM, first compound 3.16 µM) 60.5% | viability, T/C (second compound 0.00316 µM, first compound 10 µM) 57.9% | viability, T/C [9] 20.1% | viability, T/C [10] 15% | viability, T/C (second compound 0.01 µM, first compound 0.316 µM) 13.6% | viability, T/C (second compound 0.01 µM, first compound 1 µM) 16.9% | viability, T/C (second compound 0.01 µM, first compound 3.16 µM) 29.6% | viability, T/C (second compound 0.01 µM, first compound 10 µM) 46% | viability, T/C [11] 12.7% | viability, T/C [12] 14.4% | viability, T/C [19] 12.5% | viability, T/C [20] 16.3% | viability, T/C [21] 30.7% | viability, T/C [22] 36.6% | viability, T/C [13] 14.1% | viability, T/C [14] 12% | viability, T/C [23] 16.8% | viability, T/C [24] 16.2% | viability, T/C [25] 20.2% | viability, T/C [26] 33% | viability, T/C [15] 14.5% | viability, T/C [16] 13.5% | viability, T/C [27] 15.2% | viability, T/C [28] 12.1% | viability, T/C [29] 18.6% | viability, T/C [30] 33.7% | viability, T/C [17] 13% | viability, T/C [18] 12.8% | viability, T/C [31] 11.7% | viability, T/C [32] 14.8% | viability, T/C [33] 16.5% | viability, T/C [34] 28.9%
< 31.6 nM: IC50 [1] | IC50 [2] | IC50 [3] | IC50 [4] | IC50 [5] | IC50 [6]

C=C(F)C(=O)N1CCN(c2nc(OCC3CCCN3C)nc3c2CCN(c2cccc4cccc(Cl)c24)C3)CC1CC#N (stereo not given)
active: viability, T/C (compound 10 µM) 0.38% and 0.28% and 0.27%
inactive: viability, T/C (compound 0.0316 µM) 82.4% and 98.6% and 109% | viability, T/C (compound 0.1 µM) 92.8% and 99.8% and 107% | viability, T/C (compound 0.316 µM) 90.7% and 97.9% and 95.7% | viability, T/C (compound 1 µM) 75.4% and 92.3% and 89.9% | viability, T/C (compound 3.16 µM) 31% and 80% and 72.3%
1940 nM and 4850 nM and 4360 nM: IC50 (curve of compound)

CNC(C)C(=O)NC1CN(S(=O)(=O)c2cccc(S(=O)(=O)N3CCC4CCC(C(=O)NC(c5ccccc5)c5ccccc5)N4C(=O)C(NC(=O)C(C)NC)C3)c2)CCC2CCC(C(=O)NC(c3ccccc3)c3ccccc3)N2C1=O (stereo not given)
inactive: viability, T/C (compound 0.01 µM) 14.2% [middle of 9 runs] | viability, T/C (compound 0.0316 µM) 11.7% [middle of 9 runs] | viability, T/C (compound 0.1 µM) 14.7% [middle of 8 runs] | viability, T/C (compound 0.316 µM) 13.2% [middle of 9 runs] | viability, T/C (compound 1 µM) 13.2% [middle of 9 runs]
5.24 nM and 6.67 nM: IC50 (curve of compound)
< 3.16 nM: IC50 (compound alone, run of 11/15/2022)
